Assay results taken from US12473295B2, “Substituted straight chain spiro derivatives” (Janssen Pharmaceutica NV, priority 2019, dated 2025).
Counter-ions that a name gives are not always drawn.

What was measured:
iCell Cardiomyocytes2 = assay: Ca2+-fluorescence assay in human pluripotent stem cell-derived cardiomyocytes (CTCM human), iCell Cardiomyocytes2; type: cell-based; design: key: Green: No concern; Yellow: Low concern; Red: High concern; Black: Very high concern due to arrhythmic events; details: 30 min; for Color @ 0.1 μM (hazard score): iCell Cardiomyocytes2, 0.1 μM; for Color @ 1 μM (hazard score): iCell Cardiomyocytes2, 1 μM
Description: (§1) 7) Cardio-Electrophysiological Effects of the Testing Compounds in Synchronously Beating Human Pluripotent Stem Cell-Derived Cardiomyocytes (hSC-CMs) Using a Ca^2+-Fluorescence Assay (CTCM Human)
(§2) Compounds were tested in the 96-well plates
Compounds were tested at 0.1 μM, 0.2 μM, 0.5 μM, 1 μM, 2.5 μM and 5 μM (n=4 per dose) on Cor.4U 9-Cardiomyocytes or on iCell® Cardiomyocytes2
Alternatively, compounds were tested at 0.1 μM, 0.3 μM; 1 μM, 3 μM, 10 μM and 30 μM (n=4 per dose) mostly on iCell® Cardiomyocytes2
(§3) Dimethylsulfoxide (DMSO). The solutions of the compound in DMSO or its solvent (final concentration of 0.1% DMSO; n=8)
(§4) Preparation of Test Article and Controls
(§5) Tested compounds were dissolved in DMSO at 1000-fold the intended concentrations. A compound “mother-plate” was made, containing the test compounds and positive and negative controls at 1000-fold the final concentrations. At the experiment day, these stock solutions were diluted with Tyrode (Sigma), supplemented with 10 mM HEPES (Gibco), to 2-fold the intended concentration (in round bottom compound plates). Final DMSO concentration in test solutions and vehicle control was 0.1%.
Second line hSC derived cardiomyocyte called iCell®, Cardiomyocytes2 were purchased from FUJIFILM Cellular Dynamics (USA). The experiments with test drugs are carried out 5 to 7 days after plating the cells onto the plate to have a living, beating monolayer of hiPSC-derived cardiomyocytes. The beating monolayer in 96-well-plates are normally taken from 2 Vials of frozen iCell) Cardiomyocytes2 (≈5 million cells/vial), which will be plated onto […] 96-well plates (≈50K/well).
(§6) Before Start of Experiment
(§7) At least one hour before the start of the experiments the normal cell medium was replaced with Tyrode solution with Calcium dye (see below).
(§8) Cal 520 dye (AAT Bioquest) was dissolved in 11 ml of Tyrode supplemented with 10 mM HEPES and warmed up to 37° C. before adding to the cells.
(§9) 35 μl cell culture medium was removed from each well and replaced with 35 μl of pre-warmed Cal 520 dye solution and cell plate was incubated for 45 min at 37° C./5% CO2. Cells were incubated for 5 min at 37° C.
(§10) Spontaneous electrical activity is recorded, using Cal520™ (AAT Bioquest) calcium fluorescence-dye signaling. This dye integrates the total intracellular calcium activity over the whole well. A bottle of Cal520 dye (50 μg, MW: 1103/mol) is dissolved with 50 μl DMSO as a stock solution of 0.9 mM. 50 μL of the stock solution of the dye was added to 10 ml Tryodes solution to have dye concentration of 4.5 μM. Subsequently, 35 μl of this dye solution was added into each well, to have a final dye concentration of 1.58 μM. The current dye protocol on this CTCM human assay was established recently (Ivan Kopljar et al, Journal of Pharmacological and toxicological methods 2018. 91: 80-86; Lu et al., Tox Sci 2019. 170 (2): 345-356).
(§11) Fluorescent signals (Ca^2+ transient morphology) were measured using the Functional Drug Screen System (FDSS/μCell; Hamamatsu, Japan) and the recordings were subsequently analyzed off-line, using appropriate software e.g. Notocord.
(§12) The cell plate was loaded into the FDSS/μCell for a test run: Ca^2+ transients were measured for 4 minutes to check for synchronous beating of the cardiomyocytes in each well. All 96 wells were measured simultaneously (sampling interval: 0.06 s, short exposure time: 10 ms; excitation wavelength 480 nm; emission wavelength 540 nm; FDSS/μCell warmed to 37° C.).
(§13) During the compound addition step, 100 μl of the respective double-concentrated test solutions was pipetted into each well simultaneously.
(§14) Data were analyzed off-line using appropriate software e.g. Notocord-Hem (version 4.3).
The following parameters of the Ca^2′ transient morphology were measured: • beat rate (BR) • amplitude of the Ca^2+ transient (Amp), • CTD90: Ca^2+ transient duration at 90% (time to 90% of the initial base value). […]

OCI-AML3 tumors = assay: Efficacy study in disseminated OCI-AML3 model (survival); type: in vivo, mouse; details: disseminated OCI-AML3, SCID beige mice, vehicle 38.5 days
[1] = target: hERG potassium channel (IKr) (Homo sapiens (Human), UniProt Q12809); assay: Effect on membrane potassium current IKr in hERG transfected CHO cells, Protocol 1 (QPatch); type: cell-based; details: human, CHO cells stably expressing the hERG potassium channel, pH 7.4
In short: (§15)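 Whole-cell automated patch clamp on CHO cells stably expressing hERG, held at −80 mV; the value is the tail current at −40 mV after a 2 s step to +60 mV, at pH 7.4 bath and pH 7.2 pipette. After 0.3% DMSO control, compound was applied at 3×10^−7 M, 3×10^−6 M, 10^−5 M and 3×10^−5 M, 5 min each. IC50 comes from a non-linear least-squares fit of block versus vehicle.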

MOLM14 cells = assay: Proliferation assay (spheroid growth, 8 days), MOLM14; type: cell-based, human; details: MOLM14, 8 days; hydrochloride; read-out: spheroid assay_OneTime MOLM14 IC50;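 further: spheroid size read as confluence by live-cell imaging, compounds added at a range of concentrations with 0.3% DMSO, DMSO-treated wells = 0%, highest reference dose = low control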
OCI-AML3 cells = assay: Proliferation assay (spheroid growth, 8 days), OCI-AML3; type: cell-based, human; details: OCI-AML3, 8 days, hydrochloride
In short: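 Cells were seeded at 200 (MOLM14, OCI-AML3) or 300 (KO-52) per well in ultra-low attachment round-bottom plates with compounds at several concentrations, 0.3% DMSO, and grown 8 days at 37° C. Spheroid confluence was imaged on day 8; IC50 came from a variable-slope fit normalized to DMSO and high-dose reference compound.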

Cor.4U Cardiomyocytes = assay: Ca2+-fluorescence assay in human pluripotent stem cell-derived cardiomyocytes (CTCM human), Cor.4U Cardiomyocytes; type: cell-based; design: key: Green: No concern; Yellow: Low concern; Red: High concern; Black: Very high concern due to arrhythmic events; details: 30 min
Description: as §1, §2
Compounds were tested at 0.1 μM, 0.2 μM, 0.5 μM, 1 μM, 2.5 μM and 5 μM (n=4 per dose) on Cor.4U 9-Cardiomyocytes or on iCell® Cardiomyocytes2 […]
as §3, §4, §5
hSC-CMs (Cor.4U® Cardiomyocytes) were obtained from CDI (Ncardia, Germany). Cells are pre-plated and seeded in fibronectin-coated 96-well plates at a density suited to form a monolayer and maintained in culture in a stage incubator (37° C., 5% CO2), according to the instructions of the cell provider.
as §6, §7, §8, §9, §10, §11, §12, §13, §14
The following parameters of the Ca^2′ transient morphology were measured: • beat rate (BR) • amplitude of the Ca^2+ transient (Amp), • CTD90: Ca^2+ transient duration at 90% (time to 90% of the initial base value).
The presence of various ‘arrhythmia-like’ activities were also noted during the experimental periods. […]

hERG potassium channel = hERG potassium channel (Homo sapiens (Human), UniProt Q12809); assay: Effect on membrane potassium current IKr in hERG transfected CHO cells, Protocol 1 (QPatch); type: cell-based
In short: as §15

Sequence of hERG potassium channel (IKr) (Q12809 whole entry): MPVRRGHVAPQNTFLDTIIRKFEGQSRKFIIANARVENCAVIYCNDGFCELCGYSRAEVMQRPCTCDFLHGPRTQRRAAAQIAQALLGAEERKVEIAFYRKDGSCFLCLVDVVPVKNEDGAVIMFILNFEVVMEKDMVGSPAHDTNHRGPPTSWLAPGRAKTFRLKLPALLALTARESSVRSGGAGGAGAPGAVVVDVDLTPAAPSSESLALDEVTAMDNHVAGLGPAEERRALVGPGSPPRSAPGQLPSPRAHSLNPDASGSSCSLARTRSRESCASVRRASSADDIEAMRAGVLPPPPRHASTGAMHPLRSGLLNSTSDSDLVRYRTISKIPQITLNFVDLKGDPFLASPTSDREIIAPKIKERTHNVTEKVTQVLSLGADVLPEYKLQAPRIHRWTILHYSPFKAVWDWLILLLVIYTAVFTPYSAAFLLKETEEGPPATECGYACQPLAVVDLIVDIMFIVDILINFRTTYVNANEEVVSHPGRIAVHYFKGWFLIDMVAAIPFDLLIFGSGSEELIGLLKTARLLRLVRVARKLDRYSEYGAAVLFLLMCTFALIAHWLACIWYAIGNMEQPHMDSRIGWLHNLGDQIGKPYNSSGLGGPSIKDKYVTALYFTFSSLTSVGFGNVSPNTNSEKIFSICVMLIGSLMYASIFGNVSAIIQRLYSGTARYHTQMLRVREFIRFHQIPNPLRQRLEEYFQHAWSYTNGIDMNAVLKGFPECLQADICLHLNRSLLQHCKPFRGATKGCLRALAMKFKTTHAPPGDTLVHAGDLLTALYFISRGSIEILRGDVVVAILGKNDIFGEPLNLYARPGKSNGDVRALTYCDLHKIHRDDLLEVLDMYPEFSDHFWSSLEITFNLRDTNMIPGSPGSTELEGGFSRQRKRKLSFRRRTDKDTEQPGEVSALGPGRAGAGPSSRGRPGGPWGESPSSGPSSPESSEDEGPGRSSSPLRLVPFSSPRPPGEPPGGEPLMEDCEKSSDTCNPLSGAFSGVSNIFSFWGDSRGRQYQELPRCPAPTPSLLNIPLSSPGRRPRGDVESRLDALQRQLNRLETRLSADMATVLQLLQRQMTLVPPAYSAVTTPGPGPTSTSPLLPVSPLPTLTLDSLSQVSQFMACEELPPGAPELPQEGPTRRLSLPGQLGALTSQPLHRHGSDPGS
Sequence of hERG potassium channel (Q12809 whole entry): as above

CCN(C(=O)c1cc(F)ccc1Oc1nncnc1N1CCC2(C1)CN([C@H](CCCN(C)CCOC)C(C)C)C2)C(C)C [Compound 70, (R)-N-ethyl-5-fluoro-N-isopropyl-2-((5-(2-(6-((2-methoxyethyl)(methyl)amino)-2-methylhexan-3-yl)-2,6-diazaspiro[3.4]octan-6-yl)-1,2,4-triazin-6-yl)oxy)benzamide oxalate]
Color @ 0.1 μM (hazard score) (iCell Cardiomyocytes2): Green | Color @ 0.2 μM (hazard score) (iCell Cardiomyocytes2; iCell Cardiomyocytes2, 0.2 μM): Green | Color @ 0.5 μM (hazard score) (iCell Cardiomyocytes2; iCell Cardiomyocytes2, 0.5 μM): Green | Color @ 1 μM (hazard score) (iCell Cardiomyocytes2): Green | Color @ 2.5 μM (hazard score) (iCell Cardiomyocytes2; iCell Cardiomyocytes2, 2.5 μM): Green | Color @ 5 μM (hazard score) (iCell Cardiomyocytes2; iCell Cardiomyocytes2, 5 μM): Green | median days of survival (OCI-AML3 tumors; 30 mg/kg PO daily for 28 days): 75.5 days | median days of survival (OCI-AML3 tumors; 50 mg/kg PO daily for 28 days): 58.5 days

CCN(C(=O)c1cc(F)ccc1Oc1nncnc1N1CCC2(C1)CN([C@H](CCCNCCOC)C(C)C)C2)C(C)C [Compound 11, (R)-N-ethyl-5-fluoro-N-isopropyl-2-((5-(2-(6-((2-methoxyethyl)amino)-2-methylhexan-3-yl)-2,6-diazaspiro[3.4]octan-6-yl)-1,2,4-triazin-6-yl)oxy)benzamide]
Color @ 0.1 μM (hazard score) (iCell Cardiomyocytes2; range 0.1-30 μM): Green | Color @ 0.3 μM (hazard score) (iCell Cardiomyocytes2; iCell Cardiomyocytes2, 0.3 μM): Green | Color @ 1 μM (hazard score) (iCell Cardiomyocytes2; range 0.1-30 μM): Green | Color @ 3 μM (hazard score) (iCell Cardiomyocytes2; iCell Cardiomyocytes2, 3 μM): Green | Color @ 10 μM (hazard score) (iCell Cardiomyocytes2; iCell Cardiomyocytes2, 10 μM): Green | Color @ 30 μM (hazard score) (iCell Cardiomyocytes2; iCell Cardiomyocytes2, 30 μM): Green | IC50 at 5 min [1]: > 30200 nM

CCN(C(=O)c1cc(F)ccc1Oc1nncnc1N1CCC2(C1)CN([C@H](CCCNC)C(C)C)C2)C(C)C [Compound 19, (R)-N-ethyl-5-fluoro-N-isopropyl-2-((5-(2-(2-methyl-6-(methylamino)hexan-3-yl)-2,6-diazaspiro[3.4]octan-6-yl)-1,2,4-triazin-6-yl)oxy)benzamide hydrochloride]
IC50 (MOLM14 cells): 58 nM | IC50 (OCI-AML3 cells): 160 nM | Color @ 0.1 μM (hazard score) (Cor.4U Cardiomyocytes; 0.1 μM): Green | Color @ 0.2 μM (hazard score) (Cor.4U Cardiomyocytes; 0.2 μM): Green | Color @ 0.5 μM (hazard score) (Cor.4U Cardiomyocytes; 0.5 μM): Green | Color @ 1 μM (hazard score) (Cor.4U Cardiomyocytes; 1 μM): Green | Color @ 2.5 μM (hazard score) (Cor.4U Cardiomyocytes; 2.5 μM): Green | Color @ 5 μM (hazard score) (Cor.4U Cardiomyocytes; 5 μM): Green | IC50 (hERG potassium channel): > 30200 nM
